Assay results: publication PMC5093622, “Structural characterisation of high affinity Siglec-2 (CD22) ligands in complex with whole Burkitt’s lymphoma (BL) Daudi cells by NMR spectroscopy” (Scientific Reports, 2016)
pIC50, pKd: −log10 of the molar value. One block for each compound: values may come before it.

Tests used:
[1] = test system: T1, Siglec-2 expressed on intact Burkitt's lymphoma (BL) Daudi cells; assay: STD NMR binding to intact BL Daudi cells; design: species or system human; details: for STD NMR signals in the presence of BL Daudi cells: 0.5 mM ligand, 5.0 × 10^5 BL Daudi cells, 283 K
T1 construct: host or cells: BL Daudi cells
Excerpt: Anti-human Siglec-1 (CD169)-FITC, (clone: 7-239); Siglec-3 (CD33)-FITC, (clone: AC104.3E3); Siglec-5 (CD170)-FITC (clone: 1A5); Siglec-7 (CD328)-VioBlue, (clone: REA214); Siglec-8-FITC, (clone: 7C9) and relevant isotype controls were purchased from Miltenyi Biotech (Bergisch Gladbach, Germany, UE). Mouse anti-human Siglec-2 (CD22) primary antibody (clone RFB4) and the relevant isotype control (clone 1E2.2) were purchased from Merck Group (Darmstadt, Germany, UE). The rat anti-mouse secondary antibody BV421 conjugated was purchased from BD Biosciences (San Jose, CA, USA). Rabbit anti-human Siglec-4 (Myelin Associated Glycoprotein, MAG) was purchased from LifeSpan BioSciences (Seattle, WA, USA). The Donkey anti-rabbit secondary antibody (Clone Poly4064)-BV421 conjugated was purchased from Biolegend (San Diego, CA, USA). Anti-human Siglec-5/Siglec-14-APC (Clone 194128), Siglec-6 (CD327)-APC (Clone 767329), Siglec-9-FITC (Clone 191240); Goat Siglec-10-PE Affinity Purified PAb, Goat Siglec-11-PE Affinity Purified PAb, Goat IgG-PE control, Siglec-16-APC (Clone 706022), and relevant isotypes were purchased from R&D Systems (Minneapolis, MN, USA). BL Daudi and HEK293T cells were incubated with the antibodies for one hour at 4 °C in PBS supplemented with 1% FCS (PBS-FBS) at a ratio of 1 μg of antibody per 1 × 10^6 cells. The cells were washed three times and then suspended in 1 mL of PBS-FBS buffer prior to flow cytometry analysis. Propidium iodide was used at a concentration of 10 ug/mL to differentiate viable from non-viable cells. Secondary antibodies were used according to the suppliers’ instructions. A CyAn ADP Flow Cytometer and Kaluza Flow Cytometry software were used for flow cytometric analysis (Beckman Coulter, Brea, CA, USA). For sorting the BL Daudi cells into Siglec-2^low and Siglec-2^high fractions, antibody staining was achieved as described above. RPMI-1640 medium containing 50% v/v FBS was used for collecting sorted cells to minimise cell damage. Cells were sorted into low and high expressing Siglec-2 groups based on their fluorescence intensity, using MoFlo XDP (Beckman Coulter, CA, USA).
(§1) STD NMR spectra were performed using a Bruker Advance 600 MHz spectrometer, equipped with a 5-mm TXI probe with triple axis gradients at 283 K. 5 × 10^5 BL Daudi and 1 × 10^6 HEK293T cells were washed three times with the optimised deuterated NMR buffer by centrifugation at 1,300 rpm, at room temperature for 5 min and resuspending in 200 μL. The ligand concentration was adjusted to 0.5 mM for all experiments. To determine the binding epitope of the ligands when bound to cells STDD (Saturation Transfer Double Difference) spectra were generated by subtracting STD NMR signals from the ligand-cell complex from the spectrum obtained in the absence of cells or protein.
Mild periodate treatment to disrupt cis-binding was performed following published procedures. BL Daudi cells were resuspended in phosphate buffer (pH 7.4) containing freshly dissolved 2 mM NaIO4 and incubated at 4 °C in the dark. After 30 min, the excess of periodate was quenched by adding 10 μL of 20% deuterated glycerol followed by immediate washing with deuterated buffer optimised for cell NMR experiments. The STD NMR on-resonance frequency was set to −1.00 ppm and the off-resonance to 300 ppm. To ensure the viability of the cells during NMR acquisition 256 scans were chosen resulting in a total acquisition time of 53 min.

Siglec-2 Fc chimeras = target: T2, Siglec-2 Fc chimeras (Homo sapiens, UniProt P20273); assay: Surface Plasmon Resonance (SPR) assay; assay type: binding
T2 construct: the three N-terminal Ig-domains of Siglec-2 were fused to the C-terminal human IgG1 Fc domain; made in house; host or cells: CHO-Lec1
Experimental: Recombinant Siglec-2 (CD22) Fc-chimeras were expressed in CHO-Lec1 and protein purification was performed as described. The recombinant Siglec-2-Fc chimera, in which the three N-terminal Ig-domains of Siglec-2 were fused to the C-terminal human IgG1 Fc domain, was expressed in CHO-Lec1 cells.
Siglec-Fc chimeras were either captured to anti-Fc antibody-derivatised dextran surface of a Reichert SR7500DC flow cell or directly immobilized by amide coupling. N-acetylneuraminic acid derivatives at various concentrations in PBS were passed over the flow cell at a flow rate of 20 μL/min followed by buffer for dissociation. Specific binding was determined by subtracting the signal obtained from the reference cell (ethanolamine derivatised dextran surface) from the sample cell derivatised with Siglec-2 Fc chimeras. The data were analysed and fitted using the software Scrubber (BioLogic). Corresponding sensorgrams for 7 and 8 are shown in Supplementary Figure 2a,b, respectively.

[2] = test system: T3, Siglec-2 transiently expressed on HEK293T cells; assay: STD NMR binding to untransfected and Siglec-2 transfected HEK293T cells; design: species or system human
T3 construct: host or cells: HEK293T
Experimental: as §1
The full-length codon-optimized coding sequence of Siglec-2 (Uniprot entry P20273-1) cloned in plasmid pD2517 was purchased from DNA2.0 (Menlo Park, CA, USA). Plasmid amplification was performed by transformation into chemically competent E. coli NEB 5-alpha (Ipswich, MA, USA) followed by purification using a NucleoBond XTRA EF Plasmid Purification Kit (Machery Nagel, Duren, Germany, EU). […] Transfection efficiency was monitored by flow cytometry analysis 24 and 48 h post-transfection. […]

Siglec-2 = details: cited from earlier work
[3] = design: method as in PMID 10589082; details: patients treated with Rituximab; cited from earlier work

T2 sequence (P20273 with tags, fused parts or gaps limits assumed): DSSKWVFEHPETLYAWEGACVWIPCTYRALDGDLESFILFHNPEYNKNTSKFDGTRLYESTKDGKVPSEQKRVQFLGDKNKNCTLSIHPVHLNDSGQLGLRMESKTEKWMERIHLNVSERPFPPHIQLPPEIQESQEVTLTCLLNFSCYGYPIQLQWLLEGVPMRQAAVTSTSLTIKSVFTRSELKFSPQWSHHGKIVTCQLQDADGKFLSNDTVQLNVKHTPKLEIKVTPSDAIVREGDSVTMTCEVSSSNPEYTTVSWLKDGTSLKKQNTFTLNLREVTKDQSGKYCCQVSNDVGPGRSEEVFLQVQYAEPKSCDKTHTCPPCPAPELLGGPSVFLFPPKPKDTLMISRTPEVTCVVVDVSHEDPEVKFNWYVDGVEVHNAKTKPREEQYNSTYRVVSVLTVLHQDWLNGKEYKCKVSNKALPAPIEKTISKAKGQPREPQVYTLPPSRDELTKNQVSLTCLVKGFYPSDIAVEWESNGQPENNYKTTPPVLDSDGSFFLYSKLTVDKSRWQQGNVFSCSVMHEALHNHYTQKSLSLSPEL

Compound: OC[C@H]1O[C@@](CO)(O[C@H]2O[C@H](CO)[C@@H](O)[C@H](O)[C@H]2O)[C@@H](O)[C@@H]1O [sucrose, reference compound]
STD NMR signals in the presence of BL Daudi cells [1]: no STD NMR signals can be detected

pKd (Siglec-2 Fc chimeras): 6.76
Compound: COc1cccc(C(=O)N[C@@H]2[C@@H](NC(C)=O)[C@H]([C@H](O)[C@H](O)CNC(=O)c3ccc(-c4ccccc4)cc3)O[C@@](OCc3cn(CC(=O)O)nn3)(C(=O)O)[C@H]2O)c1 [compound 8, 9-BPC-2-(4-carboxymethyl-[1,2,3]triazol-1-yl)-3-hydroxy-4-meta-methoxyphenyl-carboxamido-Neu5Acα2Me]

pKd (Siglec-2 Fc chimeras): 6.74
Compound: CC(=O)N[C@@H]1[C@@H](NC(=O)c2cccc([N+](=O)[O-])c2)[C@H](O)[C@](OCc2cn(CC(=O)O)nn2)(C(=O)O)O[C@H]1[C@H](O)[C@H](O)CNC(=O)c1ccc(-c2ccccc2)cc1 [compound 7]
STD NMR signals in the presence of BL Daudi cells [1]: strong STD NMR signals

pKd (Siglec-2 Fc chimeras): 6.18
Compound: COC1(C(=O)O)CC(NC(=O)c2cccc([N+](=O)[O-])c2)C(NC(C)=O)C(C(O)C(O)CNC(=O)c2ccc(-c3ccccc3)cc2)O1 (stereo not drawn) [compound 3, 9-biphenylcarboxamido-4-meta-nitrophenyl-carboxamido-Neu5Acα2Me]
STD NMR signals in the presence of BL Daudi cells [1]: strong and significant signals
increase in absolute STD NMR signal intensity, Siglec-2^high versus Siglec-2^low BL Daudi cells ([1]; N-acetyl methyl protons, 5.0 × 10^5 sorted cells): 46%
change in STD NMR signal intensities with periodate pretreated BL Daudi cells ([1]; cells pre-treated with 2 mM NaIO4, versus untreated cells): significant increase
increase in STD NMR signal intensity, Siglec-2 transfected versus untransfected HEK293T cells ([2]; 1.0 × 10^6 cells, 283 K): 75 fold
STD NMR signal intensity with non-transfected HEK293T cells ([2]; 1.0 × 10^6 untransfected cells): Very low signal intensity
fold higher affinity than 9-BPC-Neu5Acα2Me (2) (Siglec-2; relative to 2): 15 fold

pKd (Siglec-2 Fc chimeras): 5.36
Compound: COC1(C(=O)O)CC(O)C(NC(C)=O)C(C(O)C(O)CNC(=O)c2ccc(-c3ccccc3)cc2)O1 (stereo not drawn) [compound 2, 9-BPC-Neu5Acα2Me, reference compound]
increase of overall potency by a factor (Siglec-2; relative to Neu5Acα2Me (1)): 224

Compound: Rituximab: anti-CD20 antibody
patients suffering from severe side effects [3]: 80%

Compound: COC1(C(=O)O)CC(O)C(NC(C)=O)C(C(O)C(O)CO)O1 (stereo not drawn) [compound 1, Neu5Acα2Me]
pIC50 (Siglec-2; read-out: IC50 value (binding potency for Siglec-2)): 2.85
